Measured values: patent US4086196A, “Parathyroid hormone” (Armour Pharmaceutical Company, priority 1975, dated 1978)

B1: BPTH-(1-84) (native): native bovine parathyroid hormone (1-84) (protein, UniProt P01268 32-115, looked up)
Parathyroid hormone: AVSEIQFMHNLGKHLSSMERVEWLRKKLQDVHNFVALGASIAYRDGSSQRPRKKEDNVLVESHQKSLGEADKADVDVLIKAKPQ
modifications: Parathyroid hormone

Tests used:
[1] = test system: serum calcium in the chick; assay: In vivo chick hypercalcemia bioassay; conditions: mean potency with 95% confidence limits; intravenous injection; against house standard Sephadex-BPTH calibrated to MRC Standard A
Description: (§1) In vitro bioassays based on the activation of adenylate cyclase in rat renal cortical homogenates were carried out by the procedure of Marcus and Aurbach (Endocrinology, (1969), 85, 801-810). In vivo bioassays were performed by the method of Parsons, Reit and Robinson (Endocrinology, (1973), 92, 454-462), a procedure based on increase in the serum calcium in the chick after intravenous injection. A house standard of highly purified bovine parathyroid hormone ("Sephadex-BPTH") calibrated against Medical Research Council Standard A (National Institute for Medical Research, London, England) was used for both in vivo and in vitro assays. The biological activities of the synthetic HPTH-(1-34), and the native HPTH-(1-84)-peptides in the in vitro rat kidney adenylate cyclase assay and the in vivo chick hypercalcemia assay are shown in Table 2. Included for comparison are the corresponding data on the native bovine-(1-84) and the synthetic bovine-(1-34) peptides, as well as the analogue [Ala^1 ]-HPTH-(1-34).

[2] = test system: adenylate cyclase in rat renal cortical homogenates; assay: In vitro rat kidney adenylate cyclase bioassay; assay type: biochemical; conditions: mean potency with 95% confidence limits; against house standard Sephadex-BPTH calibrated to MRC Standard A
Description: as §1

[3] = bioassay systems in vivo and in vitro; cited from earlier work

| Molecule | In vivo Chick hypercalcemia [1] | In vitro Rat kidney adenylate cyclase [2] | potency relative to whole bovine parathyroid hormone [3] |
| --- | --- | --- | --- |
| CC[C@H](C)[C@H](NC(=O)[C@H](CCC(=O)O)NC(=O)[C@H](CO)NC(=O)[C@@H](NC(=O)[C@@H](N)CO)C(C)C)C(=O)N[C@@H](CCC(N)=O)C(=O)N[C@@H](CC(C)C)C(=O)N[C@@H](CCSC)C(=O)N[C@@H](Cc1c[nH]cn1)C(=O)N[C@@H](CC(N)=O)C(=O)N[C@@H](CC(C)C)C(=O)NCC(=O)N[C@@H](CCCCN)C(=O)N[C@@H](Cc1c[nH]cn1)C(=O)N[C@@H](CC(C)C)C(=O)N[C@@H](CC(N)=O)C(=O)N[C@@H](CO)C(=O)N[C@@H](CCSC)C(=O)N[C@@H](CCC(=O)O)C(=O)N[C@@H](CCCNC(=N)N)C(=O)N[C@H](C(=O)N[C@@H](CCC(=O)O)C(=O)N[C@@H](Cc1c[nH]c2ccccc12)C(=O)N[C@@H](CC(C)C)C(=O)N[C@@H](CCCNC(=N)N)C(=O)N[C@@H](CCCCN)C(=O)N[C@@H](CCCCN)C(=O)N[C@@H](CC(C)C)C(=O)N[C@@H](CCC(N)=O)C(=O)N[C@@H](CC(=O)O)C(=O)N[C@H](C(=O)N[C@@H](Cc1c[nH]cn1)C(=O)N[C@@H](CC(N)=O)C(=O)N[C@@H](Cc1ccccc1)C(=O)O)C(C)C)C(C)C [HPTH-(1-34)] | 7400(5700-9700) MRCU/mg | 1030 (930-1140) MRCU/mg |  |
| BPTH-(1-34): synthetic peptide corresponding to 1-34 residues of bovine parathyroid hormone [reference compound] | 7700(5200-11100) MRCU/mg | 5400(3900-8000) MRCU/mg | equipotent |
| HPTH-(1-84) (native): native human parathyroid hormone (1-84) |  | 350 (275-425) MRCU/mg |  |
| CC[C@H](C)[C@H](NC(=O)[C@H](CCC(=O)O)NC(=O)[C@H](CO)NC(=O)[C@@H](NC(=O)[C@H](C)N)C(C)C)C(=O)N[C@@H](CCC(N)=O)C(=O)N[C@@H](CC(C)C)C(=O)N[C@@H](CCSC)C(=O)N[C@@H](Cc1c[nH]cn1)C(=O)N[C@@H](CC(N)=O)C(=O)N[C@@H](CC(C)C)C(=O)NCC(=O)N[C@@H](CCCCN)C(=O)N[C@@H](Cc1c[nH]cn1)C(=O)N[C@@H](CC(C)C)C(=O)N[C@@H](CC(N)=O)C(=O)N[C@@H](CO)C(=O)N[C@@H](CCSC)C(=O)N[C@@H](CCC(=O)O)C(=O)N[C@@H](CCCNC(=N)N)C(=O)N[C@H](C(=O)N[C@@H](CCC(=O)O)C(=O)N[C@@H](Cc1c[nH]c2ccccc12)C(=O)N[C@@H](CC(C)C)C(=O)N[C@@H](CCCNC(=N)N)C(=O)N[C@@H](CCCCN)C(=O)N[C@@H](CCCCN)C(=O)N[C@@H](CC(C)C)C(=O)N[C@@H](CCC(N)=O)C(=O)N[C@@H](CC(=O)O)C(=O)N[C@H](C(=O)N[C@@H](Cc1c[nH]cn1)C(=O)N[C@@H](CC(N)=O)C(=O)N[C@@H](Cc1ccccc1)C(=O)O)C(C)C)C(C)C [[Ala^1]-HPTH-(1-34)] | 4600(3500-6000) MRCU/mg | 4085(3550-4700) MRCU/mg |  |
| B1 | 2500(2100-4000) MRCU/mg | 3000(2500-4000) MRCU/mg |  |
